Assay results taken from article PMC12769565, “Design, synthesis and biological activity of glycoconjugated ADAMTS5 exosite inhibitors: applications in osteoarthritis and ovarian cancer models” (Scientific Reports, 2025).

Tests used:
ADAMTS4 = biological target: T1, ADAMTS4 (Homo sapiens, UniProt O75173); experiment: Versicanase assay (V1-5GAG, versikine sandwich ELISA); type: biochemical; settings: 100 µM; compared to DMSO control
T1 construct: Human recombinant full-length FLAG-tagged ADAMTS4 and ADAMTS5 were expressed in HEK293T cells; FLAG; made in house; host or cells: HEK293T cells
T1 sequence (O75173 213-837): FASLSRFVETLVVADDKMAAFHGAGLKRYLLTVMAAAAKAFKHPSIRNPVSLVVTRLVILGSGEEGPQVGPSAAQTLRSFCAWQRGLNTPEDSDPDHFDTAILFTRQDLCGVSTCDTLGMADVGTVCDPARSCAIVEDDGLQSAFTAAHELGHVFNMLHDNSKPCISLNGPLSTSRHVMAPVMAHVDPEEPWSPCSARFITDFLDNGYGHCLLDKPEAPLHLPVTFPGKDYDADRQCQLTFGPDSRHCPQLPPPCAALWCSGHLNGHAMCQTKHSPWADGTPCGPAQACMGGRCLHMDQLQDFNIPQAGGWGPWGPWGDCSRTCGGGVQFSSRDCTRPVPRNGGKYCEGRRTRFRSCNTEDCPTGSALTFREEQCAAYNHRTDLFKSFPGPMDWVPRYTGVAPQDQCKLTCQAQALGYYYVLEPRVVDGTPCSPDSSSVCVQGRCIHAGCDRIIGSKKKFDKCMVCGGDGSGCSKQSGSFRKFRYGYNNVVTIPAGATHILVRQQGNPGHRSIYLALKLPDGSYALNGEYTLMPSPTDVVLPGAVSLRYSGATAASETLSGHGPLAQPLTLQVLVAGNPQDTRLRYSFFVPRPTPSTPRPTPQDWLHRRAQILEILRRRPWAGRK
Protocol: Human recombinant full-length FLAG-tagged ADAMTS4 and ADAMTS5 were expressed in HEK293T cells (Thermo Fisher Scientific) and purified by anti-FLAG immunoaffinity chromatography as before. Concentrations of active proteases were determined by active-site titrations with known concentrations of TIMP-3 (Bio-Techne, 973-TM-010), using QF peptides as substrates. V1-5GAG, a truncated version of versican V1 isoform comprising residues 21–694 and containing a C-terminal 6x His tag[67], was expressed in HE293T cells and purified by immobilized metal affinity chromatography as before.
Compounds 1–4 (100 µM) or DMSO were incubated with ADAMTS4 (5 nM) or ADAMTS5 (0.4 nM) for 2 h at 37 °C, before addition of V1-5GAG (50 nM). At each time point, reactions were stopped by addition of ethylenediaminetetraacetic acid and ADAMTS-generated versican fragments (versikine) quantified by sandwich ELISA as before[29],[30],[38] using anti-DPEAAE neoepitope antibody (Life Technologies, PA1-1748 A, 5 µg/ml) and polyclonal anti-versican antibody (Abcam, ab171887, 3 µg/ml). For each reaction, the amount of versikine generated was derived from a standard curve (0–1.56 nM) of V1-5GAG completely digested with ADAMTS5. Initial velocities were calculated from the concentration of versikine generated as a function of reaction time. Percent of inhibition was calculated from the DMSO control reactions. IC50 values were determined using the formula: vi/v0 = 1/(1 + [I]/IC50) where vi is the initial velocity of substrate cleavage in the presence of the inhibitor at concentration [I] and v0 is the initial velocity in the presence of an equal concentration (v/v) of DMSO.

ADAMTS5 = biological target: T2, ADAMTS5 (Homo sapiens, UniProt Q9UNA0); experiment: Aggrecanase assay (bovine aggrecan, anti-ARGSV neoepitope immunoblot); type: biochemical
T2 construct: Human recombinant full-length FLAG-tagged ADAMTS4 and ADAMTS5 were expressed in HEK293T cells; FLAG; made in house; host or cells: HEK293T cells
T2 sequence (Q9UNA0 262-930): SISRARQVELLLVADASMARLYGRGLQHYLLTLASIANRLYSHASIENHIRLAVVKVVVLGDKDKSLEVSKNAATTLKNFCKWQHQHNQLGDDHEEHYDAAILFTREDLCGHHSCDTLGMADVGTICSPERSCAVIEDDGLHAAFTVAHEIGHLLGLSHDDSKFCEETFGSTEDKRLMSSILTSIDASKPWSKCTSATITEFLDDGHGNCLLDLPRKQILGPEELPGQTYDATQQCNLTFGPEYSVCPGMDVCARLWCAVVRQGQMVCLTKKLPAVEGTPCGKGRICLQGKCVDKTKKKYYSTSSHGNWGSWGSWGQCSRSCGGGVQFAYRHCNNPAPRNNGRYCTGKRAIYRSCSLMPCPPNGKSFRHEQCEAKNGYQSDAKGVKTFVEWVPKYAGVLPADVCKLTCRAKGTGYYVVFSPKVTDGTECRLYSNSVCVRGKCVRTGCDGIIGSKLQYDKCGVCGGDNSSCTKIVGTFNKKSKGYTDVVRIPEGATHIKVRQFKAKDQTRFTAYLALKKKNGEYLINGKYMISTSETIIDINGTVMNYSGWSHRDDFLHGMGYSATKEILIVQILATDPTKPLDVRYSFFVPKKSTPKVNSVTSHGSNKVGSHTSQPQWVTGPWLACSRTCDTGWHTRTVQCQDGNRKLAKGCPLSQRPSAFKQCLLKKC
Protocol: Aggrecanase assays were carried out as before. ADAMTS5 (1 nM) was incubated with compounds 2 and 3 or DMSO for 2 h at 37 °C in TNC-B buffer before addition of bovine articular aggrecan (UniProt ID: P13608, 270 nM) (Merck, A1960). After 2 h digestion at 37 °C, the reactions were stopped with ethylenediaminetetraacetic acid and the samples incubated with 0.1 U/ml of chondroitinase ABC (AMS Biotechnology, Abingdon, UK) and keratanase (endo-beta galactosidase, Merck, G6920) in deglycosylation buffer (50 mM sodium acetate, 25 mM Tris HCl pH 8.0) for 16 h at 37 °C to remove GAG chains.
Samples were separated by SDS-PAGE under reducing conditions (5% β-mercaptoethanol) on BOLT, 4–12%, Bis-Tris Gels (Invitrogen) in MES Running Buffer (NuPAGE). Proteins were transferred onto a nitrocellulose membrane using Trans-Blot Turbo™ Transfer System (BioRad), at 25 V, 2.5 A for 30 min. Membranes were blocked with 3% BSA/PBS for 1 h at room temperature. Aggrecan fragments generated by ADAMTS cleavage at E^392-A^393[8] or E^1953-A^1954[68] were detected using mouse monoclonal anti-ARGSV antibody (BC3, Life Technologies, MA3-16888, 4 µg/ml) or polyclonal anti-AGEG neoepitope antibody (serum, 1:200 dilution)[12],[33], respectively, followed by the appropriate horseradish peroxidase (HRP)-conjugated secondary antibodies (polyclonal Goat Anti-Mouse P0447, 0.1 ng/µl and polyclonal Goat Anti-Rabbit, P0448, 0.03 ng/µl, both from Agilent Technologies LDA UK Ltd). All antibodies were diluted in 0.5% bovine serum albumin (BSA)/PBS. Washes between each step were carried out in triplicate, for 15 min each, with PBS-Tween (0.1%). Following addition of the chemiluminescent HRP substrate (Millipore, WBKL30500) membranes were imaged using Bio-Rad Chemidoc Touch Imaging System. Analysis was carried out using BioRad ImageLab software (version 5.2.1) using sequential exposures to avoid saturation artifacts. Figures for unprocessed blots are included in Supplementary information Fig. S4 and Fig. S5 with highlighted regions (in red boxes) corresponding to the data reported in the main manuscript figures.

Which “inhibition of ADAMTS4 versicanase activity” value (ADAMTS4) does the source give for `CCC(C)N(Cc1cn(CCCO[C@@H]2O[C@H](CO)[C@@H](O[C@@H]3O[C@H](CO)[C@H](O)[C@H](O)[C@H]3O)[C@H](O)[C@H]2NC(C)=O)nn1)S(=O)(=O)c1ccc(-c2ccccc2)cc1` (stereo partly drawn) [compound 2, N-((2R,3R,4R,5 S,6R)-2-(3-(4-((N-(sec-butyl)-[1,1’-biphenyl]-4-sulfonamido)methyl)-1H-1,2,3-triazol-1-yl)propoxy)-4-hydroxy-6-(hydroxymethyl)-5-(((2 S,3R,4 S,5R,6R)-3,4,5-trihydroxy-6-(hydroxymethyl)tetrahydro-2 H-pyran-2-yl)oxy)tetrahydro-2 H-pyran-3-yl)acetamide] here?
Its value is “sparing ADAMTS4”.

And the inhibition at 10 µM (ADAMTS5; 10 µM)?
Its inhibition at 10 µM is 53%.

What about the inhibition at 100 µM (ADAMTS5; 100 µM) of the same compound?
Its inhibition at 100 µM is 80%.
